Measurements as given in publication PMC9532399, “The lysosomal transporter TAPL has a dual role as peptide translocator and phosphatidylserine floppase” (Nature Communications, 2022).

Target: T1, TAPL Y405A mutant (Mus musculus, UniProt Q9JJ59, Y405A)
T1 construct: thrombin cleavage site (C); eGFP (C); 10XHis (C); made in house; host or cells: Trichoplusia ni High Five (Hi5) insect cells, baculovirus (pVL1393)
T1 sequence (Q9JJ59 143-762 Y405A): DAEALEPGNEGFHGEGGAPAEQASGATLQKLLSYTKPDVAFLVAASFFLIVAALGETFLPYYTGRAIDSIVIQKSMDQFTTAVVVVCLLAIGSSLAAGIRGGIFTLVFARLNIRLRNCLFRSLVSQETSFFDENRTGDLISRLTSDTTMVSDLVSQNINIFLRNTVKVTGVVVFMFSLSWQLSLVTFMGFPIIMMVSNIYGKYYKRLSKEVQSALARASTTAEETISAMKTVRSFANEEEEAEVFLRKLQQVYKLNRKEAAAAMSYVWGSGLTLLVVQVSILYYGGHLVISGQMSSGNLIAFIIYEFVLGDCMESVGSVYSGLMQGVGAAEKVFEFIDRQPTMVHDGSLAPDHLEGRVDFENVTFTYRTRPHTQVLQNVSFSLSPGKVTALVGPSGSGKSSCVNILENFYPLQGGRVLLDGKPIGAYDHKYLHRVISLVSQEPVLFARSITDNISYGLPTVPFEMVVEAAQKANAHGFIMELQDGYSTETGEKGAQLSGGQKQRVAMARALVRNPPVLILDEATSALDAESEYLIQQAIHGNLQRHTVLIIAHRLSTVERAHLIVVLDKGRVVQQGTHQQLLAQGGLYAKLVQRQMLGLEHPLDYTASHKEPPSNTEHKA
Assay: Peptide transport assay, Y405A
Format: biochemical
Conditions: 9-mer 10 mM (sic), 3 mM ATP
Procedure: Proteoliposomes for peptide transport assays were prepared according to the protocol of Zhao et al., with some modifications. Briefly, E. coli polar lipid extract dissolved in chloroform was dried under a gentle stream of nitrogen. The thin film of lipids was placed under a desiccator overnight to completely remove residual chloroform and then hydrated in 1X PBS buffer pH 7.4 (137 mM NaCl, 2.7 mM KCl, 8 mM Na2HPO4, and 2 mM KH2PO4) with 10 mM MgCl2 and 5% (v/v) glycerol. After water bath sonication at 22 °C for 5 min (Powersonic 610, KLEENTEK), the lipid solution was extruded using a Mini-Extruder equipped with a polycarbonate membrane filter (200 nm pore) (Avanti Polar Lipids, Inc.) to obtain unilamellar vesicles, which were destabilized with 0.36% (w/v) DM. The DM-purified protein and lipid suspension were mixed in a 1:50 (w/w) ratio. After incubation at 4 °C for 2 h, the mixture was treated with Bio-Beads SM-2 resin (60 and 120 mg, see above) at 4 °C for a total of 18 h to remove detergent. The proteoliposomes were collected by centrifugation at 200,000×g for 1.5 h at 4 °C and resuspended in the buffer described above.
The peptide transport activity of ΔTMD0 was measured as described previously. Briefly, 50 μL of ΔTMD0-loaded proteoliposomes (~0.6 μg protein) were added into 200 μL reaction buffer containing 1X PBS pH 7.4, 3 mM ATP, and 10 mM MgCl2 in the presence or absence of 10 μM 5-IAF-labeled peptides. To investigate transport activity, the mixture was incubated at 37 °C for 10 min. The reaction was terminated by incubating the mixture for 20 min on ice. Proteoliposomes were collected by centrifugation at 200,000×g for 30 min and then washed twice with 1X PBS. The proteoliposomes were completely disrupted by adding 10% (w/v) SDS solution (final concentration, 2%). The transported peptide was measured using a microplate reader (Gemini XPS) with excitation at 485 nm and emission at 520 nm.

Q: Which results are given for “RRYQNSTC^5-IAFL [9-mer, 5-IAF-labeled peptide of 9 residues (RRYQNSTC^5-IAFL)]”?
A: Transport activity (replicate I): 18.1424%; Transport activity (replicate II): 19.1407%; Transport activity (replicate III): 12.1153%; Transport activity (wild-type = 100%, mean n=3): 16.4661%
